Test results: patent publication US4442044A, “Process for preparing monoesters and diesters of N-alkyl substituted amino methyl phosphonic acid” (priority 1983, dated 1984)

Experiments:
Experiment in all cases: post-emergent herbicidal activity, greenhouse
Type in all cases: in vivo
[1] = tested on: Panicum Spp; conditions: Table II
How it was run: (§1)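 Post-emergence foliar spray at tabulated application rates, using aliquots of a 1.0% stock in acetone, THF or water plus ~0.4% emulsifier, applied to 2–3-week-old greenhouse plants. Plant injury was rated relative to controls roughly two and four weeks after treatment.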

[2] = tested on: Downy Brome
How it was run: as §1

[3] = tested on: Soybean; conditions: Table II
How it was run: as §1

[4] = tested on: Wheat; conditions: Table II
How it was run: as §1

[5] = tested on: Yellow Nutsedge; conditions: Table I, 4 WAT
How it was run: as §1

[6] = tested on: Smartweed; conditions: 4 WAT
How it was run: as §1

[7] = tested on: Morningglory
How it was run: as §1

[8] = tested on: Wild Buckwheat; conditions: Table II
How it was run: as §1

[9] = tested on: Cocklebur; conditions: 4 WAT
How it was run: as §1

[10] = tested on: Hemp Sesbania; conditions: Table II, 1.12 kg/h
How it was run: as §1

[11] = tested on: Velvetleaf
How it was run: as §1

[12] = tested on: Rice; conditions: Table II
How it was run: as §1

[13] = tested on: Sorghum; conditions: Table II
How it was run: as §1

[14] = tested on: Johnsongrass; conditions: Table I, 4 WAT
How it was run: as §1

[15] = tested on: Quackgrass; conditions: Table I, 4 WAT
How it was run: as §1

[16] = tested on: Lambsquarters
How it was run: as §1

[17] = tested on: Sugar Beet; conditions: Table II
How it was run: as §1

[18] = tested on: Canada Thistle; conditions: Table I, 4 WAT
How it was run: as §1

[19] = tested on: Crabgrass; conditions: Table II
How it was run: as §1

[20] = tested on: Barnyardgrass
How it was run: as §1

Compound: CCOC(=O)CNCP(=O)(OCC1COC(C)(C)O1)OCC1COC(C)(C)O1 (stereo not shown) [Example 22, glycine, N-[[bis[(2,2-dimethyl-1,3-dioxolan-4-yl)methoxy]phosphinyl]methyl]-, ethyl ester]
- post-emergent herbicidal activity index ([1]; 2 WAT, 1.12 kg/h): 0 (0-24% control)
- post-emergent herbicidal activity index ([1]; 4 WAT, 5.6 kg/h): 3 (75-99% control)
- post-emergent herbicidal activity index ([2]; Table I, 4 WAT, 11.2 kg/h): 0 (0-24% control)
- post-emergent herbicidal activity index ([2]; Table I, 4 WAT, 56.0 kg/h): 2 (50-74% control)
- post-emergent herbicidal activity index ([2]; Table II, 2 WAT, 1.12 kg/h): 0 (0-24% control)
- post-emergent herbicidal activity index ([2]; Table II, 4 WAT, 5.6 kg/h): 0 (0-24% control)
- post-emergent herbicidal activity index ([3]; 2 WAT, 1.12 kg/h): 0 (0-24% control)
- post-emergent herbicidal activity index ([3]; 4 WAT, 5.6 kg/h): 0 (0-24% control)
- post-emergent herbicidal activity index ([4]; 2 WAT, 1.12 kg/h): 0 (0-24% control)
- post-emergent herbicidal activity index ([4]; 4 WAT, 5.6 kg/h): 1 (25-49% control)
- post-emergent herbicidal activity index ([5]; 11.2 kg/h): 0 (0-24% control)
- post-emergent herbicidal activity index ([5]; 56.0 kg/h): 2 (50-74% control)
- post-emergent herbicidal activity index ([6]; Table I, 11.2 kg/h): 0 (0-24% control)
- post-emergent herbicidal activity index ([6]; Table I, 56.0 kg/h): 3 (75-99% control)
- post-emergent herbicidal activity index ([7]; Table I, 4 WAT, 11.2 kg/h): 1 (25-49% control)
- post-emergent herbicidal activity index ([7]; Table I, 4 WAT, 56.0 kg/h): 2 (50-74% control)
- post-emergent herbicidal activity index ([7]; Table II, 2 WAT, 1.12 kg/h): 0 (0-24% control)
- post-emergent herbicidal activity index ([7]; Table II, 4 WAT, 5.6 kg/h): 1 (25-49% control)
- post-emergent herbicidal activity index ([8]; 2 WAT, 1.12 kg/h): 0 (0-24% control)
- post-emergent herbicidal activity index ([8]; 4 WAT, 5.6 kg/h): 2 (50-74% control)
- post-emergent herbicidal activity index ([9]; Table I, 11.2 kg/h): 0 (0-24% control)
- post-emergent herbicidal activity index ([9]; Table I, 56.0 kg/h): 2 (50-74% control)
- post-emergent herbicidal activity index ([9]; Table II, 5.6 kg/h): 0 (0-24% control)
- post-emergent herbicidal activity index ([10]; 2 WAT): 2 (50-74% control)
- post-emergent herbicidal activity index ([11]; Table I, 4 WAT, 11.2 kg/h): 0 (0-24% control)
- post-emergent herbicidal activity index ([11]; Table I, 4 WAT, 56.0 kg/h): 2 (50-74% control)
- post-emergent herbicidal activity index ([11]; Table II, 2 WAT, 1.12 kg/h): 0 (0-24% control)
- post-emergent herbicidal activity index ([11]; Table II, 4 WAT, 5.6 kg/h): 1 (25-49% control)
- post-emergent herbicidal activity index ([12]; 2 WAT, 1.12 kg/h): 0 (0-24% control)
- post-emergent herbicidal activity index ([12]; 4 WAT, 5.6 kg/h): 0 (0-24% control)
- post-emergent herbicidal activity index ([13]; 2 WAT, 1.12 kg/h): 0 (0-24% control)
- post-emergent herbicidal activity index ([13]; 4 WAT, 5.6 kg/h): 1 (25-49% control)
- post-emergent herbicidal activity index ([14]; 11.2 kg/h): 0 (0-24% control)
- post-emergent herbicidal activity index ([14]; 56.0 kg/h): 1 (25-49% control)
- post-emergent herbicidal activity index ([15]; 11.2 kg/h): 0 (0-24% control)
- post-emergent herbicidal activity index ([15]; 56.0 kg/h): 3 (75-99% control)
- post-emergent herbicidal activity index ([16]; Table I, 4 WAT, 11.2 kg/h): 0 (0-24% control)
- post-emergent herbicidal activity index ([16]; Table I, 4 WAT, 56.0 kg/h): 3 (75-99% control)
- post-emergent herbicidal activity index ([16]; Table II, 2 WAT, 1.12 kg/h): 1 (25-49% control)
- post-emergent herbicidal activity index ([16]; Table II, 4 WAT, 5.6 kg/h): 0 (0-24% control)
- post-emergent herbicidal activity index ([17]; 2 WAT, 1.12 kg/h): 0 (0-24% control)
- post-emergent herbicidal activity index ([17]; 4 WAT, 5.6 kg/h): 0 (0-24% control)
- post-emergent herbicidal activity index ([18]; 11.2 kg/h): 0 (0-24% control)
- post-emergent herbicidal activity index ([18]; 56.0 kg/h): 2 (50-74% control)
- post-emergent herbicidal activity index ([19]; 2 WAT, 1.12 kg/h): 1 (25-49% control)
- post-emergent herbicidal activity index ([19]; 4 WAT, 5.6 kg/h): 2 (50-74% control)
- post-emergent herbicidal activity index ([20]; Table I, 4 WAT, 11.2 kg/h): 3 (75-99% control)
- post-emergent herbicidal activity index ([20]; Table I, 4 WAT, 56.0 kg/h): 3 (75-99% control)
- post-emergent herbicidal activity index ([20]; Table II, 2 WAT, 1.12 kg/h): 1 (25-49% control)
- post-emergent herbicidal activity index ([20]; Table II, 4 WAT, 5.6 kg/h): 2 (50-74% control)

Compound: CCOC(=O)CNCP(=O)(OCCN1CCCC1)OCCN1CCCC1 [Example 24, glycine, N-[[bis[2-(1-pyrrolidinyl)ethoxy]phosphinyl]methyl]-, ethyl ester]
- post-emergent herbicidal activity index ([1]; 4 WAT, 1.12 kg/h): 1 (25-49% control)
- post-emergent herbicidal activity index ([1]; 4 WAT, 5.6 kg/h): 4 (100% control)
- post-emergent herbicidal activity index ([2]; Table I, 4 WAT, 5.6 kg/h): 0 (0-24% control)
- post-emergent herbicidal activity index ([2]; Table I, 4 WAT, 11.2 kg/h): 1 (25-49% control)
- post-emergent herbicidal activity index ([2]; Table II, 4 WAT, 1.12 kg/h): 0 (0-24% control)
- post-emergent herbicidal activity index ([2]; Table II, 4 WAT, 5.6 kg/h): 2 (50-74% control)
- post-emergent herbicidal activity index ([3]; 4 WAT, 1.12 kg/h): 0 (0-24% control)
- post-emergent herbicidal activity index ([3]; 4 WAT, 5.6 kg/h): 2 (50-74% control)
- post-emergent herbicidal activity index ([4]; 4 WAT, 1.12 kg/h): 0 (0-24% control)
- post-emergent herbicidal activity index ([4]; 4 WAT, 5.6 kg/h): 2 (50-74% control)
- post-emergent herbicidal activity index ([5]; 5.6 kg/h): 2 (50-74% control)
- post-emergent herbicidal activity index ([5]; 11.2 kg/h): 1 (25-49% control)
- post-emergent herbicidal activity index ([6]; Table I, 5.6 kg/h): 2 (50-74% control)
- post-emergent herbicidal activity index ([6]; Table I, 11.2 kg/h): 2 (50-74% control)
- post-emergent herbicidal activity index ([6]; Table II, 1.12 kg/h): 2 (50-74% control)
- post-emergent herbicidal activity index ([6]; Table II, 5.6 kg/h): 2 (50-74% control)
- post-emergent herbicidal activity index ([7]; Table I, 4 WAT, 5.6 kg/h): 1 (25-49% control)
- post-emergent herbicidal activity index ([7]; Table I, 4 WAT, 11.2 kg/h): 2 (50-74% control)
- post-emergent herbicidal activity index ([7]; Table II, 4 WAT, 1.12 kg/h): 1 (25-49% control)
- post-emergent herbicidal activity index ([7]; Table II, 4 WAT, 5.6 kg/h): 2 (50-74% control)
- post-emergent herbicidal activity index ([8]; 4 WAT, 1.12 kg/h): 0 (0-24% control)
- post-emergent herbicidal activity index ([8]; 4 WAT, 5.6 kg/h): 1 (25-49% control)
- post-emergent herbicidal activity index ([9]; Table I, 5.6 kg/h): 1 (25-49% control)
- post-emergent herbicidal activity index ([9]; Table I, 11.2 kg/h): 2 (50-74% control)
- post-emergent herbicidal activity index ([9]; Table II, 1.12 kg/h): 0 (0-24% control)
- post-emergent herbicidal activity index ([9]; Table II, 5.6 kg/h): 3 (75-99% control)
- post-emergent herbicidal activity index ([10]; 4 WAT): 1 (25-49% control)
- post-emergent herbicidal activity index ([11]; Table I, 4 WAT, 5.6 kg/h): 1 (25-49% control)
- post-emergent herbicidal activity index ([11]; Table I, 4 WAT, 11.2 kg/h): 1 (25-49% control)
- post-emergent herbicidal activity index ([11]; Table II, 4 WAT, 1.12 kg/h): 0 (0-24% control)
- post-emergent herbicidal activity index ([11]; Table II, 4 WAT, 5.6 kg/h): 2 (50-74% control)
- post-emergent herbicidal activity index ([12]; 4 WAT, 1.12 kg/h): 0 (0-24% control)
- post-emergent herbicidal activity index ([12]; 4 WAT, 5.6 kg/h): 2 (50-74% control)
- post-emergent herbicidal activity index ([13]; 4 WAT, 1.12 kg/h): 0 (0-24% control)
- post-emergent herbicidal activity index ([13]; 4 WAT, 5.6 kg/h): 2 (50-74% control)
- post-emergent herbicidal activity index ([14]; 5.6 kg/h): 1 (25-49% control)
- post-emergent herbicidal activity index ([14]; 11.2 kg/h): 2 (50-74% control)
- post-emergent herbicidal activity index ([15]; 5.6 kg/h): 1 (25-49% control)
- post-emergent herbicidal activity index ([15]; 11.2 kg/h): 2 (50-74% control)
- post-emergent herbicidal activity index ([16]; Table I, 4 WAT, 5.6 kg/h): 3 (75-99% control)
- post-emergent herbicidal activity index ([16]; Table I, 4 WAT, 11.2 kg/h): 1 (25-49% control)
- post-emergent herbicidal activity index ([16]; Table II, 4 WAT, 1.12 kg/h): 1 (25-49% control)
- post-emergent herbicidal activity index ([16]; Table II, 4 WAT, 5.6 kg/h): 3 (75-99% control)
- post-emergent herbicidal activity index ([17]; 4 WAT, 1.12 kg/h): 0 (0-24% control)
- post-emergent herbicidal activity index ([17]; 4 WAT, 5.6 kg/h): 1 (25-49% control)
- post-emergent herbicidal activity index ([18]; 5.6 kg/h): 1 (25-49% control)
- post-emergent herbicidal activity index ([18]; 11.2 kg/h): 1 (25-49% control)
- post-emergent herbicidal activity index ([19]; 4 WAT, 1.12 kg/h): 2 (50-74% control)
- post-emergent herbicidal activity index ([19]; 4 WAT, 5.6 kg/h): 4 (100% control)
- post-emergent herbicidal activity index ([20]; Table I, 4 WAT, 5.6 kg/h): 2 (50-74% control)
- post-emergent herbicidal activity index ([20]; Table I, 4 WAT, 11.2 kg/h): 3 (75-99% control)
- post-emergent herbicidal activity index ([20]; Table II, 4 WAT, 1.12 kg/h): 1 (25-49% control)
- post-emergent herbicidal activity index ([20]; Table II, 4 WAT, 5.6 kg/h): 3 (75-99% control)
